Source: patent US8518997B2, “4-(phenoxyalkyl)thio)-phenoxyacetic acids and analogs” (Janssen Pharmaceutica N.V., priority 2003, dated 2013)
“And” between values parts separate entries of the source, which are not always exact repeats. Equal entries are not always repeated.

These compounds were tested against T1, PPAR delta (Homo sapiens, UniProt Q03181) (assay: Transfection assay for PPAR receptors (PPAR-Gal4 / Gal4-Luciferase reporter in HEK293 cells)). Conditions: HEK293 cells co-transfected with PPAR-Gal4 (δ) receptor and Gal4-Luciferase reporter, 24 hours; multiple EC50's = multiple measurements; Table 2.
T1 sequence (Q03181 171-441 limits assumed): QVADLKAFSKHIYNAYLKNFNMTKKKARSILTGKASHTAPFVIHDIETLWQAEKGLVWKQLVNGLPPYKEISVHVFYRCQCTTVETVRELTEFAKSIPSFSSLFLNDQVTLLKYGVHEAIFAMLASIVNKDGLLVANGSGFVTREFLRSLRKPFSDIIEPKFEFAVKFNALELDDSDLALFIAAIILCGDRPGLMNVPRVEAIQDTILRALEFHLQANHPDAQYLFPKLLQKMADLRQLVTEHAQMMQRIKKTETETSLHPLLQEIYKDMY
Format: cell-based
Protocol: Transfection Assay Method for PPAR Receptors
HEK293 cells were grown in DMEM/F-12 Media supplemented with 10% FBS and glutamine (GIBCOBRL). The cells were co-transfected with DNA for PPAR-Gal4 (PPARα, γ or δ) receptor and Gal4-Luciferase Reporter using the DMRIE-C Reagent. On the following day, the medium was replaced with 5% Charcoal treated FBS growth medium. After six hours, cells were trypsinized and seeded at a density of 50,000 cell/well into 96 well plates and incubated overnight at 37° C. in a 5% CO2 incubator. Cells were then treated with test compounds or vehicle and incubated for 24 hours at 37° C. in a 5% CO2 incubator. Luciferase activity was assayed using the Steady-Glo Luciferase Assay Kit from Promega. […] Steady-Glo Luciferase Assay Kit was purchased from Promega Part# E254B.

Compound	EC50
Cc1cc(SCC(C)COc2ccc(C(F)(F)F)cc2)ccc1OCC(=O)O (stereo not shown) [Compound 1, {2-Methyl-4-[2-methyl-3-(4-trifluoromethyl-phenoxy)-propylsulfanyl]-phenoxy}-acetic acid]	9.2 nM and 5.6 nM
CCC(COc1ccc(C(F)(F)F)cc1)CSc1ccc(OCC(=O)O)c(C)c1 (stereo not shown) [Compound 3, {2-Methyl-4-[2-(4-trifluoromethyl-phenoxymethyl)-butylsulfanyl]-phenoxy}-acetic acid]	0.08 nM and 0.04 nM
CCC(COc1ccc(C(F)(F)F)cc1)CSc1ccc(OCC(=O)O)cc1 (stereo not shown) [Compound 4, {4-[2-(4-Trifluoromethyl-phenoxymethyl)-butylsulfanyl]-phenoxy}-acetic acid]	29.6 nM
CCCCCC(COc1ccc(C(F)(F)F)cc1)CSc1ccc(OCC(=O)O)c(C)c1 (stereo not shown) [Compound 6, {2-Methyl-4-[2-(4-trifluoromethyl-phenoxymethyl)-heptylsulfanyl]-phenoxy}-acetic acid]	3.3 nM (2×) and 3.7 nM
Cc1cc(SCC(C)Oc2ccc(C(F)(F)F)cc2)ccc1OCC(=O)O (stereo not shown) [Compound 7, {2-Methyl-4-[2-(4-trifluoromethyl-phenoxy)-propylsulfanyl]-phenoxy}-acetic acid]	211 nM
Cc1ccc(OCCCSc2ccc(OCC(=O)O)c(C)c2)cc1 [Compound 8]	215 nM
CCC(COc1ccc(C(F)(F)F)cc1)CSc1ccc(CC(=O)O)cc1Cl (stereo not shown) [Compound 9, {3-Chloro-4-[2-(4-trifluoromethyl-phenoxymethyl)-butylsulfanyl]-phenyl}-acetic acid]	16.6 nM and 18.5 nM
Cc1cc(SCC(CC#N)COc2ccc(C(F)(F)F)cc2)ccc1OCC(=O)O (stereo not shown) [Compound 10, {4-[3-Cyano-2-(4-trifluoromethyl-phenoxymethyl)-propylsulfanyl]-2-methyl-phenoxy}-acetic acid]	29 nM and 56 nM
Cc1cc(SCC(CCC#N)COc2ccc(C(F)(F)F)cc2)ccc1OCC(=O)O (stereo not shown) [Compound 11, {4-[4-Cyano-2-(4-trifluoromethyl-phenoxymethyl)-butylsulfanyl]-2-methyl-phenoxy}-acetic acid]	5.7 nM
Cc1cc(SCC(C/C=C/C#N)COc2ccc(C(F)(F)F)cc2)ccc1OCC(=O)O (stereo not shown) [Compound 12, {4-[5-Cyano-2-(4-trifluoromethyl-phenoxymethyl)-pent-4-enylsulfanyl]-2-methyl-phenoxy}-acetic acid]	19.9 nM
Cc1cc(SCC(O)COc2ccc(C(F)(F)F)cc2)ccc1OCC(=O)O (stereo not shown) [Compound 13]	79 nM
COC(COc1ccc(C(F)(F)F)cc1)CSc1ccc(OCC(=O)O)c(C)c1 (stereo not shown) [Compound 14, {4-[2-Methoxy-3-(4-trifluoromethyl-phenoxy)-propylsulfanyl]-2-methyl-phenoxy}-acetic acid]	16.2 nM and 21.5 nM
CCO[C@H](COc1ccc(C(F)(F)F)cc1)CSc1ccc(OCC(=O)O)c(C)c1 [Compound 15, (R)-{4-[2-Ethoxy-3-(4-trifluoromethyl-phenoxy)-propylsulfanyl]-2-methyl-phenoxy}-acetic acid]	0.76 nM and 0.56 nM and 0.88 nM and 3.4 nM and 5 nM and 1.1 nM
CCO[C@@H](COc1ccc(C(F)(F)F)cc1)CSc1ccc(OCC(=O)O)c(C)c1 [Compound 16, (S)-{4-[2-Ethoxy-3-(4-trifluoromethyl-phenoxy)-propylsulfanyl]-2-methyl-phenoxy}-acetic acid]	22.4 nM and 27.5 nM
CCOC(COc1ccc(C(F)(F)F)cc1)CSc1ccc(OCC(=O)O)c(C)c1 (stereo not shown) [Compound 17, {4-[2-Ethoxy-3-(4-trifluoromethyl-phenoxy)-propylsulfanyl]-2-methyl-phenoxy}-acetic acid]	4.2 nM and 3.2 nM and 1.5 nM and 4.5 nM and 0.69 nM and 2.7 nM
CCCOC(COc1ccc(C(F)(F)F)cc1)CSc1ccc(OCC(=O)O)c(C)c1 (stereo not shown) [Compound 18, {2-Methyl-4-[2-propoxy-3-(4-trifluoromethyl-phenoxy)-propylsulfanyl]-phenoxy}-acetic acid]	4.3 nM
CCCCOC(COc1ccc(C(F)(F)F)cc1)CSc1ccc(OCC(=O)O)c(C)c1 (stereo not shown) [Compound 19, {4-[2-Butoxy-3-(4-trifluoromethyl-phenoxy)-propylsulfanyl]-2-methyl-phenoxy}-acetic acid]	7.5 nM and 6.5 nM
C=CCOC(COc1ccc(C(F)(F)F)cc1)CSc1ccc(OCC(=O)O)c(C)c1 (stereo not shown) [Compound 21, {4-[2-Allyloxy-3-(4-trifluoromethyl-phenoxy)-propylsulfanyl]-2-methyl-phenoxy}-acetic acid]	3.7 nM and 4.2 nM
COCO[C@@H](COc1ccc(C(F)(F)F)cc1)CSc1ccc(OCC(=O)O)c(C)c1 [Compound 23, (S)-{4-[2-Methoxymethoxy-3-(4-trifluoromethyl-phenoxy)-propylsulfanyl]-2-methyl-phenoxy}-acetic acid]	70 nM

Compound	EC50
COCOC(COc1ccc(C(F)(F)F)cc1)CSc1ccc(OCC(=O)O)c(C)c1 (stereo not shown) [Compound 24, {4-[2-Methoxymethoxy-3-(4-trifluoromethyl-phenoxy)-propylsulfanyl]-2-methyl-phenoxy}-acetic acid]	6.3 nM and 6.6 nM (2×) and 5.1 nM and 6.4 nM and 3.7 nM
CSCOC(COc1ccc(C(F)(F)F)cc1)CSc1ccc(OCC(=O)O)c(C)c1 (stereo not shown) [Compound 25, {2-Methyl-4-[2-methylsulfanylmethoxy-3-(4-trifluoromethyl-phenoxy)-propylsulfanyl]-phenoxy}-acetic acid]	25.2 nM and 8.9 nM and 8.8 nM
Cc1cc(SCC(COc2ccc(C(F)(F)F)cc2)OCC(=O)O)ccc1OCC(=O)O (stereo not shown) [Compound 26, {4-[2-Carboxymethoxy-3-(4-trifluoromethyl-phenoxy)-propylsulfanyl]-2-methyl-phenoxy}-acetic acid]	126 nM
Cc1cc(SC[C@@H](COc2ccc(C(F)(F)F)cc2)OCc2ccc(Cl)s2)ccc1OCC(=O)O [Compound 27, {4-[2-(5-Chloro-thiophen-2-ylmethoxy)-3-(4-trifluoromethyl-phenoxy)-propylsulfanyl]-2-methyl-phenoxy}-acetic acid]	11.9 nM and 18.5 nM
COc1ccc(OC(COc2ccc(C(F)(F)F)cc2)CSc2ccc(OCC(=O)O)c(C)c2)cc1 (stereo not shown) [Compound 29, {4-[2-(4-Methoxy-phenoxy)-3-(4-trifluoromethyl-phenoxy)-propylsulfanyl]-2-methyl-phenoxy}-acetic acid]	62.1 nM
CCCC(=O)c1ccc(OC(COc2ccc(C(F)(F)F)cc2)CSc2ccc(OCC(=O)O)c(C)c2)cc1 (stereo not shown) [Compound 30, {4-[2-(4-Butyryl-phenoxy)-3-(4-trifluoromethyl-phenoxy)-propylsulfanyl]-2-methyl-phenoxy}-acetic acid]	23.9 nM
Cc1ccc(OCC(O)CSc2ccc(OCC(=O)O)c(C)c2)cc1 (stereo not shown) [Compound 31]	> 1000 nM
CCOC(COc1ccc(C(F)(F)F)cc1)CSc1ccc(CC(=O)O)cc1Cl (stereo not shown) [Compound 32, {3-Chloro-4-[2-ethoxy-3-(4-trifluoromethyl-phenoxy)-propylsulfanyl]-phenyl}-acetic acid]	11.2 nM
CCOCC(COc1ccc(C(F)(F)F)cc1)CSc1ccc(OCC(=O)O)c(C)c1 (stereo not shown) [Compound 33, {4-[2-Ethoxymethyl-3-(4-trifluoromethyl-phenoxy)-propylsulfanyl]-2-methyl-phenoxy}-acetic acid]	4.7 nM and 4.6 nM
COCCC(COc1ccc(C(F)(F)F)cc1)CSc1ccc(OCC(=O)O)c(C)c1 (stereo not shown) [Compound 35, {4-[4-Methoxy-2-(4-trifluoromethyl-phenoxymethyl)-butylsulfanyl]-2-methyl-phenoxy}-acetic acid]	2.3 nM and 4.1 nM
CCOC(CC(COc1ccc(C(F)(F)F)cc1)CSc1ccc(OCC(=O)O)c(C)c1)OCC (stereo not shown) [Compound 36, {4-[4,4-Diethoxy-2-(4-trifluoromethyl-phenoxymethyl)-butylsulfanyl]-2-methyl-phenoxy}-acetic acid]	52.9 nM
CCOCCC(COc1ccc(C(F)(F)F)cc1)CSc1ccc(OCC(=O)O)c(C)c1 (stereo not shown) [Compound 37, {4-[4-Ethoxy-2-(4-trifluoromethyl-phenoxymethyl)-butylsulfanyl]-2-methyl-phenoxy}-acetic acid]	1.9 nM and 2.9 nM
CSCOC(CCc1ccc(C(F)(F)F)cc1)CSc1ccc(OCC(=O)O)c(C)c1 (stereo not shown) [Compound 39, {2-Methyl-4-[2-methylsulfanylmethoxy-4-(4-trifluoromethyl-phenyl)-butylsulfanyl]-phenoxy}-acetic Acid]	12.5 nM and 17.9 nM
Cc1cc(SCC/C=C/c2ccc(C(F)(F)F)cc2)ccc1OCC(=O)O [Compound 40, {2-Methyl-4-[4-(4-trifluoromethyl-phenyl)-but-3-enylsulfanyl]-phenoxy}-acetic acid]	39.3 nM and 43.7 nM
Cc1cc(SCC(O)/C=C/c2ccc(C(F)(F)F)cc2)ccc1OCC(=O)O (stereo not shown) [Compound 41]	144 nM
CCOC(/C=C/c1ccc(C(F)(F)F)cc1)CSc1ccc(OCC(=O)O)c(C)c1 (stereo not shown) [Compound 42, {4-[2-Ethoxy-4-(4-trifluoromethyl-phenyl)-but-3-enylsulfanyl]-2-methyl-phenoxy}-acetic Acid]	8 nM and 7.9 nM
Cc1cc(SC[C@H](O)COc2ccc(C(F)(F)F)cc2)ccc1OCC(=O)O [Compound 43, Acetic acid, {4-(2R)-2-hydroxy-3-(4-trifluoromethyl-phenoxy)-propylsulfanyl}-2-methyl-phenoxyy]	43.2 nM
CCOC(COc1ccc(C(F)(F)F)cc1)COc1ccc(OCC(=O)O)c(C)c1 (stereo not shown) [Compound 44, {-4-[2-Ethoxy-3-(4-trifluoromethyl-phenoxy)-propoxy]-2-methyl-phenoxy}-acetic acid]	24.3 nM
